The structures appear in SMILES notation.

The target of one assay is T1, human androgen receptor (Homo sapiens, UniProt P10275).
T1 construct: expressed in transfected cells; host or cells: HEK293
T1 sequence (P10275 1-920): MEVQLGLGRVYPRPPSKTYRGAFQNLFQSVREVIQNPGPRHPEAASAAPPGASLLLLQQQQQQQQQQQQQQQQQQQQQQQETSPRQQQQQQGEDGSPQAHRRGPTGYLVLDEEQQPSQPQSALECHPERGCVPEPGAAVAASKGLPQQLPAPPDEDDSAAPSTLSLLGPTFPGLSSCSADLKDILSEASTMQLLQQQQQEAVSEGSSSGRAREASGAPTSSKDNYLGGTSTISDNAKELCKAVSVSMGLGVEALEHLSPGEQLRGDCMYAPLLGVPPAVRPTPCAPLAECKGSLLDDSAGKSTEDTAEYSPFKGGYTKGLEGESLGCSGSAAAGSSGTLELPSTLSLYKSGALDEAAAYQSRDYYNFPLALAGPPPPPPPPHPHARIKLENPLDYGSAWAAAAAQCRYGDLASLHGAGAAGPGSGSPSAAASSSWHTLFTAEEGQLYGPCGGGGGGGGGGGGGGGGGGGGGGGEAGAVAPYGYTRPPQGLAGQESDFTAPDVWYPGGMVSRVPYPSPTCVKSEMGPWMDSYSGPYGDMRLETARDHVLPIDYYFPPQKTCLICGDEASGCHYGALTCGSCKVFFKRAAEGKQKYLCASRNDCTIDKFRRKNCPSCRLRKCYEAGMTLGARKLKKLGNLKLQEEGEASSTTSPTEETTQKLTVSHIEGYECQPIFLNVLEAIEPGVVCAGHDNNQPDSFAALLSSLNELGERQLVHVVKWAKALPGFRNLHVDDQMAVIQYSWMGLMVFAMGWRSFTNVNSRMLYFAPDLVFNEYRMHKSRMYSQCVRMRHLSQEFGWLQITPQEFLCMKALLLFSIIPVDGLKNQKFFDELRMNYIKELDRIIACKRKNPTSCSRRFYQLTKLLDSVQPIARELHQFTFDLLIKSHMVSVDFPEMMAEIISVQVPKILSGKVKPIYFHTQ
The assay can be described thus: Reporter assay of an androgen receptor responsive sequence (luciferase, transiently transfected HEK293 cells). In kind it is cell-based. The conditions noted are these: 24 hours incubation, relative to activity of 100 nM DHT, read-out: AR transcriptive activity (pEC50) (converted). In a few lines: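 HEK293 cells transiently transfected for 3 h with ARE-firefly luciferase, full-length human AR and TK-Renilla plasmids, then exposed to compound for 24 h at 37 °C in 5% charcoal-treated FBS/DMEM. Dual-Glo luminescence read; pEC50 from 4-parameter fit relative to 100 nM DHT.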
In general terms: Reporter assays use an easily measured gene product as a stand-in for the process of interest.

The target of assay [1] is T2, androgen receptor (AR-LBD) (Rattus norvegicus, UniProt P15207).
T2 construct: 5 μL of 2×AR-LBD/Fluoromone AL Red Complex contained in the kit; purchased Invitrogen
T2 sequence (P15207 651-882 limits assumed): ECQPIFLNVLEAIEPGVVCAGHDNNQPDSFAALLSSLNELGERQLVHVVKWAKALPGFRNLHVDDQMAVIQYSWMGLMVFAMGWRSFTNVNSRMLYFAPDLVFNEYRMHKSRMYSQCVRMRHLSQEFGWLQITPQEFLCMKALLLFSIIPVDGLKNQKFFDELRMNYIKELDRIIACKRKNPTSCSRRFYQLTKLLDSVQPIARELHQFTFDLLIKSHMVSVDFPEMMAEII
As to the kind of experiment: Evaluation of androgen receptor affinity (PolarScreen Androgen Receptor Competitor Assay Kit, Red; fluorescence polarization). As to conditions: 22° C. for 5 hours, relative to binding rate of 1 μM DHT, read-out: AR affinity (pEC50) (converted). In a few lines: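 Compounds were mixed with AR-LBD/Fluoromone AL Red complex and incubated 5 h at 22° C before fluorescence polarization was read. Binding was expressed relative to 1 μM dihydrotestosterone, and pEC50 (concentration giving 50% of that binding) came from a 4-parameter fit.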
In general terms: Fluorescence polarisation rises when a labelled molecule tumbles more slowly, as on binding a larger partner.

On to `Cc1sc(N(CC[Si](C)(C)C)c2ccc(C#N)cc2)nc1C(=O)NS(C)(=O)=O` [Compound 476, 2-[4-cyano-N-(2-trimethylsilylethyl)anilino]-5-methyl-N-methylsulfonyl-thiazole-4-carboxamide], for which the EC50 at human androgen receptor is more than 10000 nM; in assay [1], 200 nM.

`Cc1sc(N(Cc2ccc3c(c2)CCO3)c2ccc(C#N)cc2)nc1C(=O)NS(C)(=O)=O` [Compound 478, 2-[4-cyano-N-(2,3-dihydrobenzofuran-5-ylmethyl)anilino]-5-methyl-N-methylsulfonyl-thiazole-4-carboxamide]: the EC50 at human androgen receptor was 25.1 nM; in assay [1], 63.1 nM.

In the case of `Cc1sc(N(Cc2cc3ccccc3o2)c2ccc(C#N)cc2)nc1C(=O)NS(C)(=O)=O` [Compound 479, 2-[N-(benzofuran-2-ylmethyl)-4-cyano-anilino]-5-methyl-N-methylsulfonyl-thiazole-4-carboxamide], the EC50 (on human androgen receptor; in assay [1]) was 63.1 nM each time.

In the case of `Cc1sc(N(CCC2CC3CCC2C3)c2ccc(C#N)cc2)nc1C(=O)NS(C)(=O)=O` (stereo not shown) [Compound 482, 2-[4-cyano-N-(2-norbornan-2-ylethyl)anilino]-5-methyl-N-methylsulfonyl-thiazole-4-carboxamide], the EC50 was 158 nM on human androgen receptor and 50.1 nM in assay [1].

With `Cc1sc(N(Cc2ccc3c(c2)C(O)CC3)c2ccc(C#N)cc2)nc1C(=O)NS(C)(=O)=O` (stereo not shown) [Compound 484, 2-[4-cyano-N-[(3-hydroxyindan-5-yl)methyl]anilino]-5-methyl-N-methylsulfonyl-thiazole-4-carboxamide], the EC50 is 126 nM at human androgen receptor and 158 nM in assay [1].

Regarding `Cc1sc(N(CCCC2CCCC2)c2ccc(C#N)cc2)nc1C(=O)NS(C)(=O)=O` [Compound 485, 2-[4-cyano-N-(3-cyclopentylpropyl)anilino]-5-methyl-N-methylsulfonyl-thiazole-4-carboxamide], the EC50 on human androgen receptor is 126 nM; in assay [1] it was 20 nM.

Consider `Cc1sc(N(Cc2ccc3c(c2)C(O)CCO3)c2ccc(C#N)cc2)nc1C(=O)NS(C)(=O)=O` (stereo not shown) [Compound 486, 2-[4-cyano-N-[(4-hydroxychroman-6-yl)methyl]anilino]-5-methyl-N-methylsulfonyl-thiazole-4-carboxamide], for which the EC50 (at human androgen receptor; in assay [1]) was 251 nM each time.

For the molecule `Cc1sc(N(Cc2ccccc2)c2ccc(C#N)cc2F)nc1C(=O)NS(C)(=O)=O` [Compound 487, 2-(N-benzyl-4-cyano-2-fluoro-anilino)-5-methyl-N-methylsulfonyl-thiazole-4-carboxamide], the results for the EC50 (on human androgen receptor; in assay [1]) were 158 nM and 79.4 nM, respectively.

As for `Cc1sc(N(CCc2cccnc2)Cc2ccc(Cl)cc2)nc1C(=O)NS(C)(=O)=O` [Compound 488, 2-[(4-chlorophenyl)methyl-[2-(3-pyridyl)ethyl]amino]-5-methyl-N-methylsulfonyl-thiazole-4-carboxamide], the EC50 on human androgen receptor was more than 10000 nM; in assay [1] it was more than 2000 nM.

In the case of `Cc1sc(N(CC2CCC3(CC2)CC3)c2ccc(C#N)cc2)nc1C(=O)NS(C)(=O)=O` [Compound 489, 2-[4-cyano-N-(spiro[2.5]octan-6-ylmethyl)anilino]-5-methyl-N-methylsulfonyl-thiazole-4-carboxamide], the EC50 was 1000 nM on human androgen receptor and 79.4 nM in assay [1].

As for `COc1cccc(CN(c2ccc(C#N)cc2)c2nc(C(=O)NS(C)(=O)=O)c(C)s2)n1` [Compound 491, 2-[4-cyano-N-[(6-methox-2-pyridyl)methyl]anilino]-5-methyl-N-methylsulfonyl-thiazole-4-carboxamide], the EC50 at human androgen receptor was 316 nM; in assay [1] it was 100 nM.

As for `Cc1sc(N(Cc2ncccc2O)c2ccc(C#N)cc2)nc1C(=O)NS(C)(=O)=O` [Compound 492, 2-[4-cyano-N-[(3-hydroxyl-pyridyl)methyl]anilino]-5-methyl-N-methylsulfonyl-thiazole-4-carboxamide], the EC50 is 1260 nM on human androgen receptor and 794 nM in assay [1].

Turning to `Cc1sc(N(Cc2cccc(=O)[nH]2)c2ccc(C#N)cc2)nc1C(=O)NS(C)(=O)=O` [Compound 493, 2-[4-cyano-N-[(6-oxo-1H-pyridin-2-yl)methyl]anilino]-5-methyl-N-methylsulfonyl-thiazole-4-carboxamide], the EC50 at human androgen receptor was more than 10000 nM; in assay [1], more than 2000 nM.

For `Cc1sc(N(Cc2cnc(-c3ccc(F)cc3)s2)c2ccc(C#N)cc2)nc1C(=O)NS(C)(=O)=O` [Compound 494, 2-[4-cyano-N-[[2-(4-fluorophenyl)thiazol-5-yl]methyl]anilino]-5-methyl-N-methylsulfonyl-thiazole-4-carboxamide], the EC50 was 1000 nM at human androgen receptor and 31.6 nM in assay [1].

Turning to `Cc1sc(N(Cc2cnc(-c3ccccc3F)s2)c2ccc(C#N)cc2)nc1C(=O)NS(C)(=O)=O` [Compound 495, 2-[4-cyano-N-[[2-(2-fluorophenyl)thiazol-5-yl]methyl]anilino]-5-methyl-N-methylsulfonyl-thiazole-4-carboxamide], the EC50 on human androgen receptor was more than 10000 nM; in assay [1], 39.8 nM.

For `Cc1sc(N(Cc2ccc(Br)nc2)c2ccc(C#N)cc2)nc1C(=O)NS(C)(=O)=O` [Compound 496, 2-[N-[(6-bromo-3-pyridyl)methyl]-4-cyano-anilino]-5-methyl-N-methylsulfonyl-thiazole-4-carboxamide], the EC50 at human androgen receptor is 158 nM; in assay [1] it was 126 nM.

As to `Cc1sc(N(Cc2nc3ccccc3s2)c2ccc(C#N)cc2)nc1C(=O)NS(C)(=O)=O` [Compound 497, 2-[N-(1,3-benzothiazol-2-ylmethyl)-4-cyano-anilino]-5-methyl-N-methylsulfonyl-thiazole-4-carboxamide], the EC50 at human androgen receptor is 200 nM; in assay [1], 126 nM.

As for `Cc1sc(N(Cc2ccc(C(F)(F)F)cc2F)c2ccc(C#N)cc2)nc1C(=O)NS(C)(=O)=O` [Compound 498, 2-[4-cyano-N-[[2-fluoro-4-(trifluoromethyl)phenyl]methyl]anilino]-5-methyl-N-methylsulfonyl-thiazole-4-carboxamide], the EC50 was 100 nM on human androgen receptor and 31.6 nM in assay [1].

As for `COCCCS(=O)(=O)NC(=O)c1nc(N(Cc2ccc(F)cc2)c2ccc(C#N)cc2)sc1C` [Compound 499, 2-[4-cyano-N-[(4-fluorophenyl)methyl]anilino]-N-(3-methoxypropylsulfonyl)-5-methyl-thiazole-4-carboxamide], the EC50 at human androgen receptor is 158 nM; in assay [1], 39.8 nM.

For the molecule `Cc1sc(N(Cc2ccc(OC(F)(F)F)cc2)c2ccc(C#N)cc2)nc1C(=O)NS(=O)(=O)Cc1ccncc1` [Compound 500, 2-[4-cyano-N-[[4-(trifluoromethoxy)phenyl]methyl]anilino]-5-methyl-N-(4-pyridylmethylsulfonyl)thiazole-4-carboxamide], the EC50 at human androgen receptor was 126 nM; in assay [1] it was 20 nM.

For `Cc1sc(N(Cc2ccc(F)cc2)c2ccc(C#N)cc2)nc1C(=O)NS(=O)(=O)Cc1ccncc1` [Compound 501, 2-[4-cyano-N-[(4-fluorophenyl)methyl]anilino]-5-methyl-N-(4-pyridylmethylsulfonyl)thiazole-4-carboxamide], the EC50 at human androgen receptor is 63.1 nM; in assay [1] it was 39.8 nM.

Turning to `COc1cccc(CN(CCc2ccc(Cl)cc2)c2nc(C(=O)NS(C)(=O)=O)c(C)s2)n1` [Compound 502, 2-[2-(4-chlorophenyl)ethyl-[(6-methoxy-2-pyridyl)methyl]amino]-5-methyl-N-methylsulfonyl-thiazole-4-carboxamide], the EC50 at human androgen receptor was 794 nM; in assay [1], 39.8 nM.

In the case of `Cc1sc(N(CCc2ccc(Cl)cc2)Cc2ccc(C#N)cc2)nc1C(=O)NS(C)(=O)=O` [Compound 503, 2-[2-(4-chlorophenyl)ethyl-[(4-cyanophenyl)methyl]amino]-5-methyl-N-methylsulfonyl-thiazole-4-carboxamide], the EC50 at human androgen receptor is 1260 nM; in assay [1], 31.6 nM.

Values taken from patent US10689354B2, “Aminoazole derivative” (Teijin Pharma Limited, priority 2015, dated 2020).
